Results: ChEMBL document CHEMBL3885861, “Open TG-GATES”

Species on record: Rattus norvegicus
Assay: Open TG-GATES - Regimen: Single
Assay type: toxicity, organism-based, Sprague-Dawley
Design: regimen Single, gender Male, age 6 weeks
Details: in vivo, po, 24 h, route gavage; for Bas / Eos / Hb / Ht / Lym / MCH / MCHC / MCV / Mono / Neu / Plat / RBC / Ret / WBC: tissue Blood; for KIDNEY_L / KIDNEY_R / KIDNEY_TOTAL: tissue Kidney; for LIVER: tissue Liver; for A/G / ALP / ALT / AST / BUN / CRE / Ca / Cl / DBIL / GLC / IP / K / Na / PL / RALB / TBIL / TC / TG / TP / gamma-GTP: tissue Plasma

COc1cc2c(c3oc(=O)c4c(c13)CCC4=O)[C@@H]1C=CO[C@@H]1O2 [AFLATOXIN]
TERMINAL_BW (0 mg/kg, dose level Control): 227.2 g | Bas (0 mg/kg, dose level Control): 0% | Eos (0 mg/kg, dose level Control): 1% | Hb (0 mg/kg, dose level Control): 12.7 g/dL | Ht (0 mg/kg, dose level Control): 37.5% | Lym (0 mg/kg, dose level Control): 79% | MCH (0 mg/kg, dose level Control): 20.7 pg | MCHC (0 mg/kg, dose level Control): 33.9% | MCV (0 mg/kg, dose level Control): 60.9 fL | Mono (0 mg/kg, dose level Control): 2.8% | Neu (0 mg/kg, dose level Control): 16.2% | Plat (0 mg/kg, dose level Control): 118.1 x10_4/uL | RBC (0 mg/kg, dose level Control): 616 x10_4/ul | Ret (0 mg/kg, dose level Control): 8.7% | WBC (0 mg/kg, dose level Control): 76.8 x10_2/uL | KIDNEY_L (0 mg/kg, dose level Control): 1 g | KIDNEY_R (0 mg/kg, dose level Control): 1 g | KIDNEY_TOTAL (0 mg/kg, dose level Control): 2.1 g | LIVER (0 mg/kg, dose level Control): 10.9 g | A/G (0 mg/kg, dose level Control): 1 | ALP (0 mg/kg, dose level Control): 1775.8 IU/L | ALT (0 mg/kg, dose level Control): 40 IU/L | AST (0 mg/kg, dose level Control): 72.2 IU/L | BUN (0 mg/kg, dose level Control): 16.5 mg/dL | CRE (0 mg/kg, dose level Control): 0.2 mg/dL | Ca (0 mg/kg, dose level Control): 10.8 mg/dL | Cl (0 mg/kg, dose level Control): 104.1 meq/L | DBIL (0 mg/kg, dose level Control): 0.002 mg/dL | GLC (0 mg/kg, dose level Control): 189.4 mg/dL | IP (0 mg/kg, dose level Control): 7 mg/dL | K (0 mg/kg, dose level Control): 4.5 meq/L | Na (0 mg/kg, dose level Control): 139.2 meq/L | PL (0 mg/kg, dose level Control): 153.4 mg/dL | RALB (0 mg/kg, dose level Control): 2.8 g/dL | TBIL (0 mg/kg, dose level Control): 0 mg/dL | TC (0 mg/kg, dose level Control): 76.2 mg/dL | TG (0 mg/kg, dose level Control): 141.9 mg/dL | TP (0 mg/kg, dose level Control): 5.7 g/dL | gamma-GTP (0 mg/kg, dose level Control): 0.8 IU/L | TERMINAL_BW (1 mg/kg, dose level Low): 220.4 g | Bas (1 mg/kg, dose level Low): 0% | Eos (1 mg/kg, dose level Low): 0.8% | Hb (1 mg/kg, dose level Low): 12.8 g/dL | Ht (1 mg/kg, dose level Low): 37.6% | Lym (1 mg/kg, dose level Low): 74.6% | MCH (1 mg/kg, dose level Low): 20.5 pg | MCHC (1 mg/kg, dose level Low): 34.2% | MCV (1 mg/kg, dose level Low): 60 fL | Mono (1 mg/kg, dose level Low): 4.8% | Neu (1 mg/kg, dose level Low): 19.2% | Plat (1 mg/kg, dose level Low): 127.7 x10_4/uL | RBC (1 mg/kg, dose level Low): 627.4 x10_4/ul | Ret (1 mg/kg, dose level Low): 8.8% | WBC (1 mg/kg, dose level Low): 97.6 x10_2/uL | KIDNEY_L (1 mg/kg, dose level Low): 1 g | KIDNEY_R (1 mg/kg, dose level Low): 1 g | KIDNEY_TOTAL (1 mg/kg, dose level Low): 2 g | LIVER (1 mg/kg, dose level Low): 10.2 g | A/G (1 mg/kg, dose level Low): 1 | ALP (1 mg/kg, dose level Low): 1769.4 IU/L | ALT (1 mg/kg, dose level Low): 59.6 IU/L | AST (1 mg/kg, dose level Low): 97 IU/L | BUN (1 mg/kg, dose level Low): 15.7 mg/dL | CRE (1 mg/kg, dose level Low): 0.2 mg/dL | Ca (1 mg/kg, dose level Low): 10.7 mg/dL | Cl (1 mg/kg, dose level Low): 103.9 meq/L | DBIL (1 mg/kg, dose level Low): 0.002 mg/dL | GLC (1 mg/kg, dose level Low): 171.4 mg/dL | IP (1 mg/kg, dose level Low): 7.5 mg/dL | K (1 mg/kg, dose level Low): 4.4 meq/L | Na (1 mg/kg, dose level Low): 138.8 meq/L | PL (1 mg/kg, dose level Low): 150.2 mg/dL | RALB (1 mg/kg, dose level Low): 2.8 g/dL | TBIL (1 mg/kg, dose level Low): 0 mg/dL | TC (1 mg/kg, dose level Low): 84.4 mg/dL | TG (1 mg/kg, dose level Low): 93.8 mg/dL | TP (1 mg/kg, dose level Low): 5.7 g/dL | gamma-GTP (1 mg/kg, dose level Low): 1 IU/L | TERMINAL_BW (3 mg/kg, dose level Middle): 219.9 g | Bas (3 mg/kg, dose level Middle): 0% | Eos (3 mg/kg, dose level Middle): 0.4% | Hb (3 mg/kg, dose level Middle): 13.4 g/dL | Ht (3 mg/kg, dose level Middle): 39.5% | Lym (3 mg/kg, dose level Middle): 74.2% | MCH (3 mg/kg, dose level Middle): 20.1 pg | MCHC (3 mg/kg, dose level Middle): 33.8% | MCV (3 mg/kg, dose level Middle): 59.5 fL | Mono (3 mg/kg, dose level Middle): 5.2% | Neu (3 mg/kg, dose level Middle): 18.6% | Plat (3 mg/kg, dose level Middle): 114.1 x10_4/uL | RBC (3 mg/kg, dose level Middle): 663 x10_4/ul | Ret (3 mg/kg, dose level Middle): 8.5% | WBC (3 mg/kg, dose level Middle): 84.9 x10_2/uL | KIDNEY_L (3 mg/kg, dose level Middle): 0.9 g | KIDNEY_R (3 mg/kg, dose level Middle): 0.9 g | KIDNEY_TOTAL (3 mg/kg, dose level Middle): 1.9 g | LIVER (3 mg/kg, dose level Middle): 10.1 g | A/G (3 mg/kg, dose level Middle): 1 | ALP (3 mg/kg, dose level Middle): 1736.6 IU/L | ALT (3 mg/kg, dose level Middle): 135 IU/L | AST (3 mg/kg, dose level Middle): 232 IU/L | BUN (3 mg/kg, dose level Middle): 15.8 mg/dL | CRE (3 mg/kg, dose level Middle): 0.2 mg/dL | Ca (3 mg/kg, dose level Middle): 10.7 mg/dL | Cl (3 mg/kg, dose level Middle): 105.1 meq/L | DBIL (3 mg/kg, dose level Middle): 0.012 mg/dL | GLC (3 mg/kg, dose level Middle): 167.8 mg/dL | IP (3 mg/kg, dose level Middle): 8.1 mg/dL | K (3 mg/kg, dose level Middle): 4.4 meq/L | Na (3 mg/kg, dose level Middle): 139.3 meq/L | PL (3 mg/kg, dose level Middle): 168 mg/dL | RALB (3 mg/kg, dose level Middle): 2.7 g/dL | TBIL (3 mg/kg, dose level Middle): 0.01 mg/dL | TC (3 mg/kg, dose level Middle): 84.4 mg/dL | TG (3 mg/kg, dose level Middle): 112.4 mg/dL | TP (3 mg/kg, dose level Middle): 5.5 g/dL | gamma-GTP (3 mg/kg, dose level Middle): 1.5 IU/L | TERMINAL_BW (10 mg/kg, dose level High): 214.9 g | Bas (10 mg/kg, dose level High): 0% | Eos (10 mg/kg, dose level High): 0.6% | Hb (10 mg/kg, dose level High): 14 g/dL | Ht (10 mg/kg, dose level High): 40.8% | Lym (10 mg/kg, dose level High): 47.8% | MCH (10 mg/kg, dose level High): 20.7 pg | MCHC (10 mg/kg, dose level High): 34.3% | MCV (10 mg/kg, dose level High): 60.5 fL | Mono (10 mg/kg, dose level High): 2.8% | Neu (10 mg/kg, dose level High): 47% | Plat (10 mg/kg, dose level High): 104.8 x10_4/uL | RBC (10 mg/kg, dose level High): 674.6 x10_4/ul | Ret (10 mg/kg, dose level High): 8.4% | WBC (10 mg/kg, dose level High): 101.9 x10_2/uL | KIDNEY_L (10 mg/kg, dose level High): 1 g | KIDNEY_R (10 mg/kg, dose level High): 1 g | KIDNEY_TOTAL (10 mg/kg, dose level High): 2 g | LIVER (10 mg/kg, dose level High): 9 g | A/G (10 mg/kg, dose level High): 1 | ALP (10 mg/kg, dose level High): 2013.2 IU/L | ALT (10 mg/kg, dose level High): 292.6 IU/L | AST (10 mg/kg, dose level High): 630.8 IU/L | BUN (10 mg/kg, dose level High): 19.7 mg/dL | CRE (10 mg/kg, dose level High): 0.2 mg/dL | Ca (10 mg/kg, dose level High): 10.7 mg/dL | Cl (10 mg/kg, dose level High): 103.7 meq/L | DBIL (10 mg/kg, dose level High): 0.094 mg/dL | GLC (10 mg/kg, dose level High): 153.2 mg/dL | IP (10 mg/kg, dose level High): 9.1 mg/dL | K (10 mg/kg, dose level High): 4.1 meq/L | Na (10 mg/kg, dose level High): 138.9 meq/L | PL (10 mg/kg, dose level High): 158.2 mg/dL | RALB (10 mg/kg, dose level High): 2.8 g/dL | TBIL (10 mg/kg, dose level High): 0.1 mg/dL | TC (10 mg/kg, dose level High): 87.4 mg/dL | TG (10 mg/kg, dose level High): 32.9 mg/dL | TP (10 mg/kg, dose level High): 5.6 g/dL | gamma-GTP (10 mg/kg, dose level High): 2.9 IU/L
